Legend:
[1] = tested on: HBV; test: In vitro antiviral assay: anti-HBV replication in HepAD38 cells (extracellular HBV DNA by QPCR); format: cell-based, hepatitis B virus (genotype D, serotype ayw); settings: Hepatitis B virus, HePAD38, 168 h, 7 days incubation, extracellular HBV DNA by QPCR, read-out: Anti-HBV EC50
Summary of the method: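 HepG2-derived HepAD38 cells (HBV genotype D, ayw, tet-repressible CMV) induced by tetracycline withdrawal, treated 7 days at 37 °C with compound (1 μM to 10 pM, 10-fold steps). Supernatant HBV DNA quantified by QPCR against standard curve, percent of DMSO control; EC50 by 4-parameter fit; entecavir positive control.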

[2] = In vitro cytotoxicity assay (MTT cell viability) in HepG2 cells; format: cell-based, human; settings: human
Summary of the method: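 CC50 was derived by 4-parameter fit of viability relative to vehicle controls, measured as MTT formazan absorbance at 492 nm after 3–4 h of reagent and DMSO solubilization. Before that, HepG2 cells seeded overnight at 20,000/well were incubated 7 days at 37°C with compound from 30 μM down to 1.0 nM in half-log steps.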

Structure (SMILES) | EC50 [1] | CC50 at 7 days [2]
Cc1c(C(=O)Nc2ccc(F)c(C#N)c2)c(C)n(C)c1C(=O)C(=O)NC(C)(C)C [Example 59, 5-(2-(tert-butylamino)-2-oxoacetyl)-N-(3-cyano-4-fluorophenyl)-1,2,4-trimethyl-1H-pyrrole-3-carboxamide] | < 0.05 µM | > 30 µM
Cc1c(C(=O)Nc2ccc(F)c(Br)c2)c(C)n(C)c1C(=O)C(=O)NC(C)(C)C [Example 60, N-(3-bromo-4-fluorophenyl)-5-(2-(tert-butylamino)-2-oxoacetyl)-1,2,4-trimethyl-1H-pyrrole-3-carboxamide] | < 0.05 µM | > 30 µM
Cc1cc(NC(=O)c2c(C(C)C)c(C(=O)C(=O)N[C@]3(C)C[C@H](O)C3)n(C)c2C)ccc1F [Example 93, N-(4-fluoro-3-methylphenyl)-5-(2-(((1s,3s)-3-hydroxy-1-methylcyclobutyl)amino)-2-oxoacetyl)-4-isopropyl-1,2-dimethyl-1H-pyrrole-3-carboxamide] | > 1 µM | > 30 µM
Cc1cc(NC(=O)c2c(C)c(C(=O)C(=O)NC3(CO)CCN(C(=O)c4cn(C)nc4C(F)F)CC3)n(C)c2C)ccc1F [Example 75, 5-(2-((1-(3-(difluoromethyl)-1-methyl-1H-pyrazole-4-carbonyl)-4-(hydroxymethyl)piperidin-4-yl)amino)-2-oxoacetyl)-N-(4-fluoro-3-methylphenyl)-1,2,4-trimethyl-1H-pyrrole-3-carboxamide] | < 0.05 µM | > 30 µM
CC(=O)N1CCC(CO)(NC(=O)C(=O)c2c(C)c(C(=O)Nc3ccc(F)c(C)c3)c(C)n2C)CC1 [Example 72, 5-(2-((1-acetyl-4-(hydroxymethyl)piperidin-4-yl)amino)-2-oxoacetyl)-N-(4-fluoro-3-methylphenyl)-1,2,4-trimethyl-1H-pyrrole-3-carboxamide] | < 0.05 µM | > 30 µM
CCC1(NC(=O)C(=O)c2c(C)c(C(=O)Nc3ccc(F)c(C)c3)c(C)n2C)CCN(C(=O)c2cn(C)nc2C(F)F)CC1 [Example 40, 5-(2-((1-(3-(difluoromethyl)-1-methyl-1H-pyrazole-4-carbonyl)-4-ethylpiperidin-4-yl)amino)-2-oxoacetyl)-N-(4-fluoro-3-methylphenyl)-1,2,4-trimethyl-1H-pyrrole-3-carboxamide] | < 0.05 µM | > 30 µM
Cc1c(C(=O)Nc2ccc(F)c(C#N)c2)c(C)n(C)c1C(=O)C(=O)Nc1ccc(B(O)O)cc1 [Example 140, (4-(2-(4-((3-cyano-4-fluorophenyl)carbamoyl)-1,3,5-trimethyl-1H-pyrrol-2-yl)-2-oxoacetamido)phenyl)boronic acid] | < 0.05 µM | > 30 µM
Cc1cc(NC(=O)c2c(C)c(C(=O)C(=O)NC3(CO)CCN(C(=O)c4cnn(C)c4)CC3)n(C)c2C)ccc1F [Example 74, N-(4-fluoro-3-methylphenyl)-5-(2-((4-(hydroxymethyl)-1-(1-methyl-1H-pyrazole-4-carbonyl)piperidin-4-yl)amino)-2-oxoacetyl)-1,2,4-trimethyl-1H-pyrrole-3-carboxamide] | < 0.05 µM | > 30 µM
Cc1cc(NC(=O)c2c(C)c(C(=O)C(=O)N[C@@H]3C[C@@H](C(=O)O)N(C)C3)n(C)c2C)ccc1F [Example 171, (2S,4R)-4-(2-(4-((4-fluoro-3-methylphenyl)carbamoyl)-1,3,5-trimethyl-1H-pyrrol-2-yl)-2-oxoacetamido)-1-methylpyrrolidine-2-carboxylic acid] | > 1 µM | > 30 µM
Cc1cc(NC(=O)c2c(C)c(C(=O)C(=O)N[C@]3(C)CC[C@H](O)CC3)n(C)c2C2CC2)ccc1F [Example 114, 2-cyclopropyl-N-(4-fluoro-3-methylphenyl)-5-(2-(((1s,4s)-4-hydroxy-1-methylcyclohexyl)amino)-2-oxoacetyl)-1,4-dimethyl-1H-pyrrole-3-carboxamide] | < 0.05 µM | > 30 µM
CC[C@]1(NC(=O)C(=O)c2c(C)c(C(=O)Nc3ccc(F)c(C)c3)c(C)n2C)CC[C@@H](O)CC1 [Example 5, 5-(2-(((1s,4s)-1-ethyl-4-hydroxycyclohexyl)amino)-2-oxoacetyl)-N-(4-fluoro-3-methylphenyl)-1,2,4-trimethyl-1H-pyrrole-3-carboxamide] | < 0.05 µM | > 30 µM
Cc1c(C(=O)Nc2ccc(F)c(-c3nc[nH]n3)c2)c(C)n(C)c1C(=O)C(=O)NC(C)(C)C [Example 139, 5-(2-(tert-butylamino)-2-oxoacetyl)-N-(4-fluoro-3-(1H-1,2,4-triazol-3-yl)phenyl)-1,2,4-trimethyl-1H-pyrrole-3-carboxamide] | > 1 µM | > 30 µM
Cc1cc(NC(=O)c2c(C)c(C(=O)C(=O)N[C@@H]3CC[C@H](O)CC3(C)C)n(C)c2C)ccc1F (single isomer, unassigned) [Example 142] | < 0.05 µM | > 30 µM
Cc1ccc(F)c(NC(=O)c2c(C)c(C(=O)C(=O)NC(C)(C)C)n(C)c2C)c1 [Example 68, 5-(2-(tert-butylamino)-2-oxoacetyl)-N-(2-fluoro-5-methylphenyl)-1,2,4-trimethyl-1H-pyrrole-3-carboxamide] | < 0.05 µM | > 30 µM
CCc1c(C(=O)Nc2ccc(F)c(C)c2)c(C)c(C(=O)C(=O)N[C@H]2CC[C@@H](S(C)(=O)=O)CC2)n1C [Example 106, 2-ethyl-N-(4-fluoro-3-methylphenyl)-1,4-dimethyl-5-(2-(((1s,4s)-4-(methylsulfonyl)cyclohexyl)amino)-2-oxoacetyl)-1H-pyrrole-3-carboxamide] | < 0.05 µM | > 30 µM
Cc1c(C(=O)NC23CCC(O)(CC2)CC3)c(C)n(C)c1C(=O)C(=O)Nc1cccnc1 [Example 29, N-(4-hydroxybicyclo[2.2.2]octan-1-yl)-1,2,4-trimethyl-5-(2-oxo-2-(pyridin-3-ylamino)acetyl)-1H-pyrrole-3-carboxamide] | > 1 µM | > 30 µM
Cc1c(C(=O)Nc2ccc(F)c(C(N)=O)c2)c(C)n(C)c1C(=O)C(=O)NC(C)(C)C [Example 57, 5-(2-(tert-butylamino)-2-oxoacetyl)-N-(3-carbamoyl-4-fluorophenyl)-1,2,4-trimethyl-1H-pyrrole-3-carboxamide] | > 1 µM | > 30 µM
Cc1c(C(=O)Nc2ccc(F)c(C#N)c2)c(C)n(C)c1C(=O)C(=O)Nc1cccc(B(O)O)c1 [Example 141, (3-(2-(4-((3-cyano-4-fluorophenyl)carbamoyl)-1,3,5-trimethyl-1H-pyrrol-2-yl)-2-oxoacetamido)phenyl)boronic acid] | 0.05 to 0.499 µM | > 30 µM
Cc1cc(NC(=O)c2c(C)c(C(=O)C(=O)N[C@@H]3CN[C@H](C(=O)O)C3)n(C)c2C)ccc1F [Example 179, (2S,4S)-4-(2-(4-((4-fluoro-3-methylphenyl)carbamoyl)-1,3,5-trimethyl-1H-pyrrol-2-yl)-2-oxoacetamido)pyrrolidine-2-carboxylic acid] | > 1 µM | > 30 µM
Cc1cc(NC(=O)c2c(C)c(C(=O)C(=O)NCC(C)(C)O)n(C)c2-c2ccncc2)ccc1F [Example 164, N-(4-fluoro-3-methylphenyl)-5-(2-((2-hydroxy-2-methylpropyl)amino)-2-oxoacetyl)-1,4-dimethyl-2-(pyridin-4-yl)-1H-pyrrole-3-carboxamide] | > 1 µM | > 30 µM
Cc1csc(C2(NC(=O)c3c(C)c(C(=O)C(=O)NC(C)(C)C)n(C)c3C)CCCC2)n1 [Example 47, 5-(2-(tert-butylamino)-2-oxoacetyl)-1,2,4-trimethyl-N-(1-(4-methylthiazol-2-yl)cyclopentyl)-1H-pyrrole-3-carboxamide] | > 1 µM | > 30 µM
Cc1c(C(=O)Nc2ccc(F)c(C#N)c2)c(C)n(C)c1C(=O)C(=O)NC1(C)CC(O)C1 (stereo not shown) [Example 83, N-(3-cyano-4-fluorophenyl)-5-(2-((3-hydroxy-1-methylcyclobutyl)amino)-2-oxoacetyl)-1,2,4-trimethyl-1H-pyrrole-3-carboxamide] | < 0.05 µM | > 30 µM
COC(=O)c1cc(NC(=O)c2c(C)c(C(=O)C(=O)NC(C)(C)C)n(C)c2C)ccc1F [Example 55, methyl 5-(5-(2-(tert-butylamino)-2-oxoacetyl)-1,2,4-trimethyl-1H-pyrrole-3-carboxamido)-2-fluorobenzoate] | > 1 µM | > 30 µM
Cc1cc(NC(=O)c2c(C)c(C(=O)C(=O)N[C@H]3CC[C@@H](O)CC3)n(C)c2C2CCCCC2)ccc1F [Example 119, 2-cyclohexyl-N-(4-fluoro-3-methylphenyl)-5-(2-(((1s,4s)-4-hydroxycyclohexyl)amino)-2-oxoacetyl)-1,4-dimethyl-1H-pyrrole-3-carboxamide] | 0.5 to 1 µM | 5 to 30 µM
CCc1c(C(=O)Nc2ccc(F)c(C)c2)c(C)n(C)c1C(=O)C(=O)NC1CCN(c2cccnn2)CC1 [Example 91, 4-ethyl-N-(4-fluoro-3-methylphenyl)-1,2-dimethyl-5-(2-oxo-2-((1-(pyridazin-3-yl)piperidin-4-yl)amino)acetyl)-1H-pyrrole-3-carboxamide] | 0.05 to 0.499 µM | > 30 µM
Cc1noc(C2(NC(=O)c3c(C)c(C(=O)C(=O)Nc4cccnc4)n(C)c3C)CC2)n1 [Example 30, 1,2,4-trimethyl-N-(1-(3-methyl-1,2,4-oxadiazol-5-yl)cyclopropyl)-5-(2-oxo-2-(pyridin-3-ylamino)acetyl)-1H-pyrrole-3-carboxamide] | > 1 µM | > 30 µM
